Assay [1] deals with SH-SY5Y cells treated with Aβ42 oligomers. The assay can be described thus: Anti-Aβ42 neurotoxicity assay. It counts as cell-based, human. As for the experimental part: Human neuroblastoma SH-SY5Y cell line (Sigma-Aldrich, Saint Louis, Mo.) was cultured in DMEM/F12 (v/v 1:1) media supplemented with 2 mM glutamine, 10% heat-inactivated fetal bovine serum (FBS) and 1% antibiotics including penicillin and streptomycin. After reaching 70-80% confluence, cells were then subcultured on poly-L-lysine plates with 10 μM retinoic acid in a reduced serum media (1% FBS) to promote neuronal maturation and differentiation as described (Agholme, et al. (2010) J. Alzheimer's Dis. 20: 1069-1082). Cell cultures were incubated at 37° C. in a fully humidified atmosphere containing 5% CO2.
The toxic oligomers of Aβ42 were prepared as described (Liang, et al. (2016) ACS Chem. Neurosci. 7:912-923). Briefly, lyophilized Aβ42 peptide was dissolved in hexafluoroisopropanol, dried under vacuum, and stored at −20° C. Immediately prior to use, the peptide residue was reconstituted in DMEM/F12 media to make a stock solution at 0.1 mM and incubated at 4° C. for 24 hours to form diffusible oligomers. Aβ42 oligomers at a final concentration of 10 μM were assayed for cell viability.
SH-SY5Y cells were seeded at a density of 3×10^5 cells/mL in a 96-well plate in DMEM/F12 media containing 10 μM retinoic acid and 1% FBS to suppress cell proliferation. Cells were incubated under regular culture conditions for attachment. After 24 hours of plating, the cells were pretreated with different concentrations of test samples or the 0.2% DMSO as a vehicle control for 1 hour and then co-incubated with 10 μM Aβ42 for 72 hours. After the experimental treatment, the cells were subject to a […]® 96 AQueous One Solution Cell Proliferation […] Assay according to the manufacturer's instruction. […] Each data point was collected in triplicate of two independent experiments.

Another assay relates to APP/PS1 transgenic mice. The assay can be described thus: Morris water maze test. Format: in vivo, mouse. As for the experimental part: The backgrounds of all mice (APP/PS1 dual transgenic mice and wild-type mice with littermates) were C57/B6. Transgenic mice were randomly divided into three groups (n=20 for each group), and wild-type mice were used as controls (n=20). […] Throughout the study-period, animals were housed in a controlled environment (temperature, 22° C.; humidity, 50-60%, 12-hour light/12-hour dark schedules), with free access to rodent chow and water. After a Morris water maze test, mice were perfused with cold phosphate-buffered saline (PBS), brain tissues were dissected and kept frozen at −80° C. until further analysis. […] Isoorientin was dissolved in sterilized, ultrapure water, sonicated for 20 minutes at a concentration of 5 mg/ml and 2.5 mg/ml, and stored at 4° C. Isoorientin was administered by oral gavage. The required amount of solution was returned to room temperature before intragastric administration. […] The maze was composed of a circular pool (120 cm in diameter) filled with water (22±2° C.) to a height of 30 cm. […] Mice were given day of adaptive training followed by trials on six consecutive days. Each trial started by gently placing the mouse into the water with its head toward the pool wall of any of the three quadrants without the platform. If an animal found the platform within 60 seconds, it was left on the platform for 20 seconds. […] On the last day of Morris water maze test, the platform was removed and the number of times that the mice crossed the location of the original platform was quantified. Between trials, all mice were placed back in their home cages using a spoon-net to avoid direct contact with the experimenter. All trials were tracked automatically by a digital tracking system (Feidi Biological Technology) assessing path length, swimming speed, and latency to escape from the water.

For the next assay, the target named is GSK-3β (Homo sapiens, UniProt P49841). The assay can be described thus: Kinase luminescent assay (ADP-Glo), GSK-3β inhibition. The conditions noted are these: 25 μM ATP, 1 hour, room temperature; mean of quadruplicate of two experiments; read-out: IC50 against GSK-3β. It counts as biochemical. As for the experimental part:
Kinase Luminescent Assay.
Kinase inhibition was assessed with the ADP-Glo Kinase Assay. […] The reaction mixture was incubated for 1 hour at room temperature followed by the addition of the ADP-Glo′ reagents according to the manufacturer's protocol. The kinase inhibitor staurosporine was used at 1 μM as a reference control. Each data point was collected in quadruplicate of two independent experiments.
(In general: ADP-Glo turns the ADP formed in a reaction into a luminescent signal.)

For assay [2], the system named is Aβ plaques and Iba1-positive microglia. The assay is described as follows: Immunofluorescence labeling (Aβ+IBA1). It counts as in vivo, mouse. Conditions: APP/PS1 mice. As for the experimental part:
The backgrounds of all mice (APP/PS1 dual transgenic mice and wild-type mice with littermates) were C57/B6. Transgenic mice were randomly divided into three groups (n=20 for each group), and wild-type mice were used as controls (n=20). The control group and one group of transgenic mice (model group) were given sterilized ultrapure water, and the other two groups of transgenic mice received low- and high-dose Isoorientin (20 and 50 mg/kg, respectively) via intragastric administration for 60 days. Throughout the study-period, animals were housed in a controlled environment (temperature, 22° C.; humidity, 50-60%, 12-hour light/12-hour dark schedules), with free access to rodent chow and water. After a Morris water maze test, mice were perfused with cold phosphate-buffered saline (PBS), brain tissues were dissected and kept frozen at −80° C. until further analysis. […] Double-labelling procedures were performed to determine the relationship between Iba1-positive and Aβ-positive plaques. […] Sections were then blocked with 5% BSA in 0.01% TRITON X-100 in TBS (TBST) for 1 hour at room temperature. […] Representative images were obtained by fluorescence microscope (Leica).

The term EC50 denotes the concentration needed to bring the measured effect to its halfway point. By IC50 is commonly meant the concentration at which inhibition is half-maximal.

GSK-3β, sequence (P49841 whole entry): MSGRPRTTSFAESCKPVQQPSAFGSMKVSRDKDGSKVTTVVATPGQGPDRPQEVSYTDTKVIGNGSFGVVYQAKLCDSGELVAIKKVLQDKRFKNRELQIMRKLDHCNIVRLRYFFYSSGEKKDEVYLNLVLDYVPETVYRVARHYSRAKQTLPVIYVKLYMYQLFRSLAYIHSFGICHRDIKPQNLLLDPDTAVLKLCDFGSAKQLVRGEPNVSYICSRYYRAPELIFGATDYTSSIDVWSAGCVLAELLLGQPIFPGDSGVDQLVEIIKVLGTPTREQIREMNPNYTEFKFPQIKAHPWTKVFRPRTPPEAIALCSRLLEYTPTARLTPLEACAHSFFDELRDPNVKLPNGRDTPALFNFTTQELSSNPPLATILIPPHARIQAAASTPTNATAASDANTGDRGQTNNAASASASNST

With `O=c1cc(-c2ccc(O)c(O)c2)oc2cc(O)c([C@@H]3O[C@H](CO)[C@@H](O)[C@H](O)[C@H]3O)c(O)c12` [Compound 1, isoorientin], the EC50 in assay [1] (Homo sapiens, SH-SY5Y, 1 hour pretreatment, 10 μM Aβ42, 72 hours, read-out: neuroprotective potency EC50) turned out to be 47 µM. In addition, in assay [1] (morphological observations), the “effective dose, morphological protection from Aβ42 intoxication” value is 200 μM. In the assay on APP/PS1 transgenic mice (all doses, vs untreated APP/PS1), the platform cross frequencies result is recorded as “significantly increased”. Moreover, the escape latency result in the assay on APP/PS1 transgenic mice (intragastric, 60 days, all doses, vs untreated APP/PS1) is reported as “significantly reduced the escape latency”. The cognitive deficit result in the assay on APP/PS1 transgenic mice (oral, 25-mg/kg) is reported as “significant alleviation of cognitive deficit”. Also, at GSK-3β, the IC50 was 185 µM. Besides, in assay [2], the “Aβ plaques in cortex and hippocampus” value is “reduced”; the “activated aggregated Iba1-positive cells around plaques” value was “also reduced”.

(Values after patent US11254700B2, “GSK-3β inhibitors and use thereof in methods of treatment” (UNIVERSITY OF HAWAII, priority 2017, dated 2022).)
